Data on six compounds can be found in US8080115B2, “Method for the surface treatment of a metallic or fibrous material” (priority 2005, dated 2011).

A short description of series [1]: Risks of harmfulness for the aquatic environment / bioaccumulation. The arrangement: key: −=harmful demonstrated; +=slight risk; ++=very slight risks. The source says:
For each of Compositions A to E, the characteristics of odor (“ODOR”), of stability at alkaline pH, i.e. at a pH of 9 (“STAB.”) and of risks of harmfulness in terms of protection of the aquatic environment/bioaccumulation (“BIO.”) are taken up in the table below according to the following notation: […]

The nature of series [2]: Flammability / flashpoint of the compositions. It counts as physicochemical.
Series [3] is described as follows: Degreasing of steel sheets with an impregnated cotton pad. The arrangement: key to degreasing grade: Grade=1: visible residual presence of a thin greasy film; Grade=2: visible residual presence of small greasy spots; Grade=3: visible absence of fatty substance (degreased sheet). Particulars: for OVERALL GRADE (/10): from the number of the 9 fatty substances with grade 3. The text has this:
Steel sheets covered with a thin, uniform film of different greases, lubricants or straight cutting oils commonly used in the metal-processing industry are degreased.
The performances of these 7 compositions are compared for 9 commercial greases and oils of different chemical mixtures.
For the purpose of the evaluation, a cotton pad is impregnated with the test composition and then this cotton pad is brought into contact with a thin and uniform film of fatty substances deposited on the surface of a steel sheet. This operation is repeated twice. The steel sheet is subsequently rinsed with cold water, so as to remove the solvent. The degreasing effect is subsequently graded as follows:
Grade=1: visible residual presence of a thin greasy film,
Grade=2: visible residual presence of small greasy spots,
Grade=3: visible absence of fatty substance (degreased sheet).
For each of Compositions 1 to 7, an “overall grade” is assigned to the function of the number of fatty substances for which the composition in question has not made it possible to achieve the grade of 3. This overall grade, with a maximum value of 10, is assigned in the following way:
For each Composition 1 to 7, the grade obtained a) for the specific degreasing of each of the fatty substances FS1 to FS9 deposited (grade from 1 to 3) and b) overall, as degreasing composition (grades from 6/10 to 10/10) is thus taken up in the table below.

For series [4] the following is noted: compulsory labelings R51/R53; cited from earlier work.
Series [5] can be described thus: Ready biodegradability, OECD No. 301 A (DOC Die-away Test). The settings on record: at 28 days.
The nature of series [6]: Aerobic inherent biodegradability, OECD 302 B (Zahn-Wellens EMPA Test). The settings on record: at 28 days. The source says:
The biodegradability is here measured according to the process, hereinafter denoted “OECD 302 B”, recommended by the OECD under the following number and following title: No. 302 B—Inherent Biodegradability: Zahn—Wellens EMPA Test.

The test system of series [7] is aquatic organisms, such as bacteria, freshwater algae, daphnia and freshwater fish. Description: Toxicity for aquatic organisms.
A further series concerns man. Particulars: previously described advantages; cited from earlier work.
[8] abbreviates: FS 2 = mixture of petroleum mineral oils.
The mark [9] stands for this setting: FS 4 = molybdenum disulfide grease.
[10] abbreviates: FS 5 = mixture of mineral oil, of paraffinic hydrocarbons and of graphite.
Setting [11] is: FS 6 = polydimethylsiloxane oil.
[12] abbreviates: FS 7 = mutifraction oily mixture.
[13] abbreviates: FS 8 = biostable polyvalent microemulsion.
Where [14] appears, read: FS 9 = nonchlorinated special lubricant.

With “2,2,4-trimethyl-1,3-pentanediol monoisobutyrate [Composition A]”, the “BIO. (risks of harmfulness, protection of the aquatic environment/bioaccumulation)” value in series [1] is on record as “−”.

`C=C(C)[C@H]1CC=C(C)CC1` [Composition 3, dipentene]: the flashpoint in series [2] was 48 °C. For the same compound, the degreasing grade in series [3] (FS 1 = paraffinic mineral oil), in series [3] (setting [8]), in series [3] (FS 3 = food-grade mineral oil), in series [3] (setting [9]), in series [3] (setting [10]) and in series [3] (setting [11]) was 3 each time. The degreasing grade in series [3] (setting [12]) is 3; in series [3] (setting [13]), 2; in series [3] (setting [14]) it was 3. Further, in series [3], the “OVERALL GRADE (/10)” value is on record as 9 /10.

Turning to `ClC=C(Cl)Cl` [Composition 1, trichloroethylene], the degreasing grade in series [3] (FS 1 = paraffinic mineral oil), in series [3] (setting [8]), in series [3] (FS 3 = food-grade mineral oil), in series [3] (setting [9]), in series [3] (setting [10]) and in series [3] (setting [11]) was 3 each time. In addition, the degreasing grade in series [3] (setting [12]), in series [3] (setting [13]) and in series [3] (setting [14]) was 3 each time. Moreover, in series [3], the “OVERALL GRADE (/10)” value was 10 /10. Further, in series [4], the “toxicity for the environment” value was “a certain toxicity”.

In the case of `ClCCl` [Composition 2, dichloromethane], the degreasing grade in series [3] (FS 1 = paraffinic mineral oil), in series [3] (setting [8]), in series [3] (FS 3 = food-grade mineral oil), in series [3] (setting [9]), in series [3] (setting [10]) and in series [3] (setting [11]) was 3 each time. Further, the degreasing grade in series [3] (setting [12]), in series [3] (setting [13]) and in series [3] (setting [14]) was 3 each time. For the same compound, the “OVERALL GRADE (/10)” value in series [3] is on record as 10 /10. For the same compound, the “toxicity for the environment” value in series [4] is on record as “a certain toxicity”.

With `CCOC(=O)C(C)O` (stereo not shown) [Composition 4, ethyl lactate], the flashpoint in series [2] was determined as 46 °C. Moreover, the degreasing grade in series [3] (FS 1 = paraffinic mineral oil) is listed as 3; in series [3] (setting [8]), 3; in series [3] (FS 3 = food-grade mineral oil), 3; in series [3] (setting [9]), 3; in series [3] (setting [10]), 2; in series [3] (setting [11]), 3. For the same compound, the degreasing grade in series [3] (setting [12]) is on record as 3; in series [3] (setting [13]) it was 2; in series [3] (setting [14]), 3. Further, the “OVERALL GRADE (/10)” value in series [3] was 8 /10.

The compound `CO[C@H]1CO[C@H]2[C@@H]1OC[C@H]2OC` [Composition 5, dimethyl isosorbide] yielded a flashpoint in series [2] of 120 °C. For the same compound, the degreasing grade in series [3] (FS 1 = paraffinic mineral oil) turned out to be 3; in series [3] (setting [8]) it was 3; in series [3] (FS 3 = food-grade mineral oil), 2; in series [3] (setting [9]) it was 3; in series [3] (setting [10]), 2; in series [3] (setting [11]) it was 2. The figures for the degreasing grade in series [3] (setting [12]), in series [3] (setting [13]) and in series [3] (setting [14]) were 3, 2 and 3, respectively. For the same compound, in series [3], the “OVERALL GRADE (/10)” value was 6 /10. In series [1], the “BIO. (risks of harmfulness, protection of the aquatic environment/bioaccumulation)” value is “++”. Also, the ready biodegradability in series [5] is recorded as ~25%. In series [6], the aerobic inherent biodegradability was ~36%. Also, the “toxicity for aquatic organisms” value in series [7] is “absence of toxicity for aquatic organisms”. Also, in the series on man, the “irritant nature and toxicity to man” value was “absence of irritant nature and of toxicity to man”.
